Consider three molecules from paper PMC11851430, “Workflow for E3 Ligase Ligand Validation for PROTAC Development” (ACS Chemical Biology, 2025).

Each structure is given as a SMILES string.

Common to all, as to experiment: DSF assay
What all share (format): binding
What all share (settings): 20 µM compound
For orientation: In DSF a fluorescence change marks the thermal transition of the protein.

Assay [1] concerns the target T1, STK38LA (Homo sapiens, UniProt Q9Y2H1).
T1 construct: purchased in-house DSF panel (SGC-style construct names; the trailing A/B is a construct suffix)
As to the method: (§1) Excitation and emission filters […]
(§2) curve. […] Measurements were
(§3) Kinobeads selectivity profiling of PROTACs
(§4) (Multiplexion, Heidelberg, Germany).
(§5) The cell lysate was ultracentrifuged and diluted
(§6) NaF, 1 mM DTT, protease inhibitors and phosphatase inhibitors to a final concentration of 5 mg/ml as determined by Bradford assay. For selectivity profiling of compounds the cell lysate (2.5 mg of total proteins per pulldown) was pre-incubated with increasing compound […]
(§7) µM) for 45 min at 4 °C in an end-over-end shaker. Subsequently, lysates were incubated with Kinobeads epsilon (17 µL settled beads) for 30 min at 4 °C. To assess the degree of protein depletion from the lysates by Kinobeads, the flow-through of the DMSO control was recovered

For assay [2], the target named is T2, CLK3A (Homo sapiens, UniProt P49761).
T2 construct: purchased in-house DSF panel (SGC-style construct names; the trailing A/B is a construct suffix)
On the procedure: as §1, §2, §3, §4, §5, §6, §7

The target in assay [3] is T3, MARK3A (Homo sapiens, UniProt P27448).
T3 construct: purchased in-house DSF panel (SGC-style construct names; the trailing A/B is a construct suffix)
On the procedure: as §1, §2, §3, §4, §5, §6, §7

In assay [4] the target is T4, SRPK1 (Homo sapiens, UniProt Q96SB4).
T4 construct: purchased in-house DSF panel (SGC-style construct names; the trailing A/B is a construct suffix)
As to the method: as §1, §2, §3, §4, §5, §6, §7

The target of assay [5] is T5, BRD4 (Homo sapiens, UniProt O60885).
T5 construct: purchased in-house DSF panel (SGC-style construct names; the trailing A/B is a construct suffix)
As to the method:
as §1, §2, §3, §4, §5, §6, §7

Assay [6] has as its target T6, MAP2K1A (Homo sapiens, UniProt Q02750).
T6 construct: purchased in-house DSF panel (SGC-style construct names; the trailing A/B is a construct suffix)
On the procedure: as §1, §2, §3, §4, §5, §6, §7

Assay [7] has as its target T7, MAPK9A (Homo sapiens, UniProt P45984).
T7 construct: purchased in-house DSF panel (SGC-style construct names; the trailing A/B is a construct suffix)
As to the method: as §1, §2, §3, §4, §5, §6, §7

Assay [8] addresses T8, BMP2KA (Homo sapiens, UniProt Q9NSY1).
T8 construct: purchased in-house DSF panel (SGC-style construct names; the trailing A/B is a construct suffix)
On the procedure:
as §1, §2, §3, §4, §5, §6, §7

In assay [9] the test system is RPS6KA1A. On the procedure: as §1, §2, §3, §4, §5, §6, §7
Assay [10] deals with CDC42BPAA. As to the method:
as §1, §2, §3, §4, §5, §6, §7

Assay [11] concerns the target T9, MAPK8B (Homo sapiens, UniProt P45983).
T9 construct: purchased in-house DSF panel (SGC-style construct names; the trailing A/B is a construct suffix)
As to the method:
as §1, §2, §3, §4, §5, §6, §7

Assay [12] deals with T10, CSNK1DA (Homo sapiens, UniProt P48730).
T10 construct: purchased in-house DSF panel (SGC-style construct names; the trailing A/B is a construct suffix)
T10 sequence (P48730 1-294): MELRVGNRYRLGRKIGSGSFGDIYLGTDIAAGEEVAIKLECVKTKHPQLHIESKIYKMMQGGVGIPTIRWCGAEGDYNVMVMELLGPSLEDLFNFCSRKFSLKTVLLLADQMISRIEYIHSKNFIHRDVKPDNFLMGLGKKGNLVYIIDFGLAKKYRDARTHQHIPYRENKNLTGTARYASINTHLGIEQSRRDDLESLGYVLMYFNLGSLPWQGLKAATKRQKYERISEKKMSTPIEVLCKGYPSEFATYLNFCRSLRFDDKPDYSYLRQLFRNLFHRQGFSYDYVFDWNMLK
As to the method:
as §1, §2, §3, §4, §5, §6, §7

Assay [13] addresses T11, FGFR3A (Homo sapiens, UniProt P22607).
T11 construct: purchased in-house DSF panel (SGC-style construct names; the trailing A/B is a construct suffix)
As to the method:
as §1, §2, §3, §4, §5, §6, §7

In assay [14] the target is T12, SLKA (Homo sapiens, UniProt Q9H2G2).
T12 construct: purchased in-house DSF panel (SGC-style construct names; the trailing A/B is a construct suffix)
On the procedure: as §1, §2, §3, §4, §5, §6, §7

Assay [15] addresses T13, MST4A (Homo sapiens, UniProt Q9P289).
T13 construct: purchased in-house DSF panel (SGC-style construct names; the trailing A/B is a construct suffix)
On the procedure:
as §1, §2, §3, §4, §5, §6, §7

The target of assay [16] is T14, NEK2A (Homo sapiens, UniProt P51955).
T14 construct: purchased in-house DSF panel (SGC-style construct names; the trailing A/B is a construct suffix)
T14 sequence (P51955 1-271): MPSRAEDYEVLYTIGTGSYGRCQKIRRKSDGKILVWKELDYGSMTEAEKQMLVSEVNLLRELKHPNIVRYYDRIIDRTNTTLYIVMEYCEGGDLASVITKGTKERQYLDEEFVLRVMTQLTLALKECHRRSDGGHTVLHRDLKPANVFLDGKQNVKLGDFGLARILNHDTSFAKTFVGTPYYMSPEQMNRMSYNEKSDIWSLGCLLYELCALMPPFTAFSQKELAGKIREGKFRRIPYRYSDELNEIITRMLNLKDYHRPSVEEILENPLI
As to the method: as §1, §2, §3, §4, §5, §6, §7

The target in assay [17] is T15, BMPR2A (Homo sapiens, UniProt Q13873).
T15 construct: purchased in-house DSF panel (SGC-style construct names; the trailing A/B is a construct suffix)
T15 sequence (Q13873 27-1038): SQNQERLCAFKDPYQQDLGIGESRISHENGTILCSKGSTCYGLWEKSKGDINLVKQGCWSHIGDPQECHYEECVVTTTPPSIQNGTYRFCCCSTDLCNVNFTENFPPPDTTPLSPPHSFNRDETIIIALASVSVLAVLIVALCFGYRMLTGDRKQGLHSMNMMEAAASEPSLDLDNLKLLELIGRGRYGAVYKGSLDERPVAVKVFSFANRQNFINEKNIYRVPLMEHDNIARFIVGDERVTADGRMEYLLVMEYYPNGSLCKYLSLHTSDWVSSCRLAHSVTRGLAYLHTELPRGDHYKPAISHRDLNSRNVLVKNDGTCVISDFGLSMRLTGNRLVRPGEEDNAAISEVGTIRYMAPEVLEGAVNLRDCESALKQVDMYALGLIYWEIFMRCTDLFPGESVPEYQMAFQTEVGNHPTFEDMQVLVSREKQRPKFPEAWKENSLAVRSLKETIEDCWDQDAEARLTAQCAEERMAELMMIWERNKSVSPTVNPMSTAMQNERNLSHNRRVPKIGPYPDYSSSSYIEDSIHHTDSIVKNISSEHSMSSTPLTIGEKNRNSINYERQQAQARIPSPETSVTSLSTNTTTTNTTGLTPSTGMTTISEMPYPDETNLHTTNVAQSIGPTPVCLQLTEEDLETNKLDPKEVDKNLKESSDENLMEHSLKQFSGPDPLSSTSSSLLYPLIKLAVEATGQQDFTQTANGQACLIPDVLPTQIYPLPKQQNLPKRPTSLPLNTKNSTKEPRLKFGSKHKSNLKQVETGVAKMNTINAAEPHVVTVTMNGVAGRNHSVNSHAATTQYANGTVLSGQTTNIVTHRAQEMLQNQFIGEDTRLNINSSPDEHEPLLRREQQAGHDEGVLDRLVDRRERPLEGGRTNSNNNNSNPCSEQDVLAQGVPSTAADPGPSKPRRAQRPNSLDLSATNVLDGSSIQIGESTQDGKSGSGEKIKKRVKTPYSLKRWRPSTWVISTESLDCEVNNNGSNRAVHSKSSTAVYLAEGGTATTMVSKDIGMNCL
On the procedure:
as §1, §2, §3, §4, §5, §6, §7

T7 sequence (P45984 1-364): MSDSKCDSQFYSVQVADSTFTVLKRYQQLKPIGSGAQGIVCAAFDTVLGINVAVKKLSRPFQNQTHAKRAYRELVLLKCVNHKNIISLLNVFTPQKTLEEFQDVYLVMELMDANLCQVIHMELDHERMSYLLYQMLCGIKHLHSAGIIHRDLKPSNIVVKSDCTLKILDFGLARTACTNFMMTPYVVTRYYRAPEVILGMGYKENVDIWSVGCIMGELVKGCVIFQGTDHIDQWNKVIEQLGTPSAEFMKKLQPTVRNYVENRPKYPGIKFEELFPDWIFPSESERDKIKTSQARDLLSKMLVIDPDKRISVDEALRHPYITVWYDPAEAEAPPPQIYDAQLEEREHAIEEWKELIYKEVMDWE
T6 sequence (Q02750 62-393): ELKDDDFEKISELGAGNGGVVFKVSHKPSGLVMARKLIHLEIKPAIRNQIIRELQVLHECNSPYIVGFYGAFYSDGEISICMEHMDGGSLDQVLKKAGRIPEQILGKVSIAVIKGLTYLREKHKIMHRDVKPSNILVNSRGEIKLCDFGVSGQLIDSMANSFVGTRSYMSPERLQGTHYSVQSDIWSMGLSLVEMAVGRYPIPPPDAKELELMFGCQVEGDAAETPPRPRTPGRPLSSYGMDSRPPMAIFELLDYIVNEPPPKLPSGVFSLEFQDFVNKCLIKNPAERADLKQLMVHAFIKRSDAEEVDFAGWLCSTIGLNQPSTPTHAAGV
T4 sequence (Q96SB4 whole entry): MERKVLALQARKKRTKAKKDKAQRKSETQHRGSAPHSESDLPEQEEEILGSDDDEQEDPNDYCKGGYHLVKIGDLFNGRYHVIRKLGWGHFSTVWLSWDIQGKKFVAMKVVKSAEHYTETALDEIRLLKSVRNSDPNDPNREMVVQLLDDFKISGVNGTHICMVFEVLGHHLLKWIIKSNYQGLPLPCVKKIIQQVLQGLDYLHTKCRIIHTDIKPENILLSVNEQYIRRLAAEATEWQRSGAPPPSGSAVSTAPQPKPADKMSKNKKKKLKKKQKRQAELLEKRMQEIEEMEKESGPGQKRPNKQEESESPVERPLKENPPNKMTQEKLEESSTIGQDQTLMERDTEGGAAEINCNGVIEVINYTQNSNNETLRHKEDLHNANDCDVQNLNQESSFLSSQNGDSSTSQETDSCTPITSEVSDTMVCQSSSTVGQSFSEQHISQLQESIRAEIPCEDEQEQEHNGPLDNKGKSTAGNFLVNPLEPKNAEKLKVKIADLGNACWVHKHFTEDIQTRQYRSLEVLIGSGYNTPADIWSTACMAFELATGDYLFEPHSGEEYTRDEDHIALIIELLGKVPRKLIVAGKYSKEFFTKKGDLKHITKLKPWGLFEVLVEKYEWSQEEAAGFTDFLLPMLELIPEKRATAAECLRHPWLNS
T3 sequence (P27448 56-307): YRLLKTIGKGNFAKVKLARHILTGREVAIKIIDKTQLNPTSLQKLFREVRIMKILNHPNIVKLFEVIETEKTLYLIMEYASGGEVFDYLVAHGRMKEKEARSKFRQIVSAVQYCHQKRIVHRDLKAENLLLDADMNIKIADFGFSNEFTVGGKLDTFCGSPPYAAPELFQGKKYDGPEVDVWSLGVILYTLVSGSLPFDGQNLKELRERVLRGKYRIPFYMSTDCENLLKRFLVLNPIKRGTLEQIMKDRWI
T8 sequence (Q9NSY1 38-345): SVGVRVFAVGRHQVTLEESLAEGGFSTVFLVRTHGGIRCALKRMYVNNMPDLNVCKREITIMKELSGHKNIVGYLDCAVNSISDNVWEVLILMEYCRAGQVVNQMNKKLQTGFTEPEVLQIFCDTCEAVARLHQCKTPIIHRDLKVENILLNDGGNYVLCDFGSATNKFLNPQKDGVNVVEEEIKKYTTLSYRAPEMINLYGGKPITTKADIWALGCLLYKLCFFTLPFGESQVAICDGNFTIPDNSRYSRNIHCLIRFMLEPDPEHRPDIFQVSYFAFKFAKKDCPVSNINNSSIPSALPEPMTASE
T2 sequence (P49761 127-484): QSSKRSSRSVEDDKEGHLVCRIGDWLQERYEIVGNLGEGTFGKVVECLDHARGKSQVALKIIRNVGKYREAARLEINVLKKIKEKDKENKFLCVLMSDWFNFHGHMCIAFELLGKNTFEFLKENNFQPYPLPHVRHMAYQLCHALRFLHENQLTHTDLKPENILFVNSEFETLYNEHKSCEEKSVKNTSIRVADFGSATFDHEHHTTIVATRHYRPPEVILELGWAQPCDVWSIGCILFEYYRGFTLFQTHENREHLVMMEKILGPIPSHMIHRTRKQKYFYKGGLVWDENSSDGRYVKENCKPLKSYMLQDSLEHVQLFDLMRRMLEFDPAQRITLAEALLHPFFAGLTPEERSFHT
T9 sequence (P45983 1-364): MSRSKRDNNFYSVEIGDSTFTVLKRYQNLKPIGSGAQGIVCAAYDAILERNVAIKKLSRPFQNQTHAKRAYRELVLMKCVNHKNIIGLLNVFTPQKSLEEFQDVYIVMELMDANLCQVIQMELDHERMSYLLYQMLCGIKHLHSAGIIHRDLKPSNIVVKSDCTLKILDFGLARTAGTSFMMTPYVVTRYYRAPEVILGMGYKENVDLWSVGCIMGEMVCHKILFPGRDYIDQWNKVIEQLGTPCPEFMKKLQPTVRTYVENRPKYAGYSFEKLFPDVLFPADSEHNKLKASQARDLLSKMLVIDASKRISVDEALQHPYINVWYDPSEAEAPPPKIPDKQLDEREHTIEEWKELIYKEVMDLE
T1 sequence (Q9Y2H1 90-453): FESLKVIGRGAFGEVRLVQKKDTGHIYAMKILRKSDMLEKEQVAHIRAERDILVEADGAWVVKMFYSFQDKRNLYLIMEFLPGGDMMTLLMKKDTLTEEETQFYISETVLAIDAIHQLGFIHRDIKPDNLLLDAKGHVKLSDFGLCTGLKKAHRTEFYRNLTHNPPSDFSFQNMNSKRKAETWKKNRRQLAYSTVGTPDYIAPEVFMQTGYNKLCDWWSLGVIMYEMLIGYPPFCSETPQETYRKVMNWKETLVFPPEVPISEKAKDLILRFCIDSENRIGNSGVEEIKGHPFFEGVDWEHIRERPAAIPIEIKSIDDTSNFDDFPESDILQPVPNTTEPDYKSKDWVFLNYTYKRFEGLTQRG
T11 sequence (P22607 455-768): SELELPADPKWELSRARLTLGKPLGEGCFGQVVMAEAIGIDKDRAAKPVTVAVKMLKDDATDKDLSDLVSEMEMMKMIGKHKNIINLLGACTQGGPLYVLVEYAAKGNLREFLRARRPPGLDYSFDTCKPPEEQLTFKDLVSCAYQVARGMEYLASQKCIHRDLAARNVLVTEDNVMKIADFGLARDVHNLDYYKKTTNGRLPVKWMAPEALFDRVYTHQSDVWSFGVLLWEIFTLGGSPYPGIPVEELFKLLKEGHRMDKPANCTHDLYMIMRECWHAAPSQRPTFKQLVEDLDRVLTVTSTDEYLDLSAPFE
T13 sequence (Q9P289 1-300): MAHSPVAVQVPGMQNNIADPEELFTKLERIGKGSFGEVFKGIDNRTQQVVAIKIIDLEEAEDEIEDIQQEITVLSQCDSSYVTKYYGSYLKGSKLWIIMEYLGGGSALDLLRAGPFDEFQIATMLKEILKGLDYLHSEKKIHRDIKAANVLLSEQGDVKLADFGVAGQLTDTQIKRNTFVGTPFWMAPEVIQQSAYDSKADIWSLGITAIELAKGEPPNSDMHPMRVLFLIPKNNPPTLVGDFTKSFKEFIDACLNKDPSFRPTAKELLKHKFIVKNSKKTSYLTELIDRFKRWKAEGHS

Consider `CCOC(=O)c1cc(Nc2cc(C3CC3)[nH]n2)nc(Nc2ccc(CC#N)cc2)n1` [compound 5], for which the ΔTm (usually the shift of the melting midpoint relative to a reference) at 20 µM is 6.74 °C in [1]; 9.57 °C in assay [2]; 5.37 °C in assay [3]; 4.31 °C in assay [4]; 1.16 °C in [5]; 1.56 °C in assay [6]. Besides, the ΔTm at 20 µM in assay [7] amounted to 2.84 °C; in assay [8] it was 18 °C; in [11], 4.31 °C; in assay [12] it was 2.62 °C; in assay [13] it was 8.45 °C; in assay [14], 9.06 °C. The shift in melting temperature (ΔTm) at 20 µM in assay [15] was determined as 5.53 °C; in assay [16], 2.25 °C; in assay [17], 7.28 °C. For the same molecule, the ΔTm is 1.55 °C in assay [9] and -2.55 °C in assay [10].

For the molecule `CC(C)(C)OC(=O)NCCOCCOCCOCCOCCC(=O)N1CCN(c2cc(Nc3cc(C4CC4)[nH]n3)nc(Nc3ccc(CC#N)cc3)n2)CC1` [4-L], the ΔTm at 20 µM in assay [1] is 10.2 °C; in assay [2] it was 6.42 °C; in assay [3], 5.32 °C; in assay [4], 0.76 °C; in assay [5] it was 0.18 °C; in assay [6] it was 1.66 °C. The ΔTm at 20 µM is 4.27 °C in assay [7]; 21.5 °C in assay [8]; 6.93 °C in assay [11]; 3.01 °C in assay [12]; 11.4 °C in assay [13]; 11.3 °C in assay [14]. Besides, the thermal shift (ΔTm) at 20 µM amounted to 9.01 °C in assay [15], 2.97 °C in assay [16] and 9.02 °C in assay [17]. Besides, the results for the thermal shift (ΔTm) in [9] and in assay [10] were 0.76 °C and -2.71 °C, respectively.

For the molecule `CC(C)(C)OC(=O)NCCCOCCOCCOCCCNC(=O)c1cc(Nc2cc(C3CC3)[nH]n2)nc(Nc2ccc(CC#N)cc2)n1` [5-L], the ΔTm at 20 µM in assay [1] is 7.04 °C; in [2] it was 9.33 °C; in [3], 3.97 °C; in assay [4], 2.8 °C; in assay [5] it was -0.79 °C; in [6], 1.17 °C. The ΔTm at 20 µM in [7] is 4.61 °C; in assay [8], 17.7 °C; in [11] it was 6.48 °C; in [12] it was 5.43 °C; in assay [13] it was 7 °C; in assay [14], 8.84 °C. Further, the figures for the shift in melting temperature (ΔTm) at 20 µM in assay [15], in [16] and in [17] were 4.64 °C, 0.77 °C and 7.29 °C, respectively. Also, the ΔTm in [9] was 1.85 °C; in assay [10] it was -3.72 °C.
